The text below walks through data of patent publication EP0236939A1, “Derivatives of 5-acyloxy-13-beta-alkyl milbemicyne against parasites in animals and plants” (CIBA-GEIGY AG, priority 1986, dated 1987).

One experiment has as its system Spodoptera littoralis. Put plainly: B-1 insecticidal stomach-poison action on Spodoptera littoralis (sprayed cotton plants). It counts as in vivo. Particulars: Wirkstoffkonzentration 3 ppm; nach 24 Stunden; L1 larvae on sprayed cotton plants. As to the method:
Eingetopfte Baumwollpflanzen im 5-Blatt-Stadium werden mit einer acetonisch/wässrigen Versuchslösung besprüht, die 3, 12,5 oder 50 ppm der zu prüfenden Verbindung enthält.
Nach dem Antrocknen des Belags werden die Pflanzen mit ca. 30 Larven (L₁-Stadium) von Spodoptera littoralis besetzt. Pro Versuchsverbindung und pro Test-Spezies verwendet man zwei Pflanzen. Der Versuch wird bei ca. 24°C und 60 % relativer Luftfeuchtigkeit durchgeführt. Auswertungen und Zwischenauswertungen auf moribunde Tiere, Wachstum und Larven und Frassschäden erfolgen nach 24 Stunden, 48 Stunden und 72 Stunden.

The test system of experiment [1] is L₁-Larven von Lucilia sericata. In words: B-3 action against L1 larvae of Lucilia sericata (larval culture medium). It counts as in vivo. Particulars: Lucilia sericata, 96 h, after 4 days, read-out: Wirkung (Mortalitätsrate). How it is done: 1 ml einer wässrigen Suspension der zu prüfenden Aktivsubstanz werden so mit 3 ml eines speziellen Larvenzuchtmediums bei ca. 50°C vermischt, dass ein Homogenisat von wahlweise 250 ppm oder 100 ppm Wirkstoffgehalt entsteht. In jede Reagenzglas-Probe werden ca. 30 Lucilia-Larven (L₁) eingesetzt. Nach 4 Tagen wird die Mortalitätsrate bestimmt. Verbindungen der Formel I aus den Tabellen, wie z.B. die Verbindungen Nr. 2.8, 2.17, 2.31, 2.33, 2.35, 2.43, 2.1, 2.18 und 2.45 erzielten mit 100 ppm eine Wirkung von 100 %.

The test system of experiment [2] is Boophilus microplus (Biarra-Stamm). Put plainly: B-4 acaricidal action against Boophilus microplus (injection into engorged female ticks, IR90). It counts as in vivo. Particulars: injection of 1, 0,1 or 0,01 µg per tick; dose of the result not stated. As to the method:
Auf einer PVC-Platte wird waagrecht ein Klebstreifen so befestigt, das darauf 10 mit Blut vollgesogene Zecken-Weibchen von Boophilus microplus (Biarra-Stamm) nebeneinander in einer Reihe mit dem Rücken aufgeklebt werden können. Jeder Zecke wird mit einer Injektionsnadel 1 µl einer Flüssigkeit injiziert, die eine 1:1-Mischung von Polyethylenglykol und Aceton darstellt und in der eine bestimmte Wirkstoffmenge von wahlweise 1, 0,1 oder 0,01 µg pro Zecke gelöst ist. Kontrolltiere erhalten eine wirkstofffreie Injektion. Nach der Behandlung werden die Tiere unter Normalbedingungen in einem Insektarium bei ca. 28°C und 80 % relativer Luftfeuchtigkeit gehalten, bis die Eiablage erfolgt und die Larven aus den Eiern der Kontrolltiere geschlüpft sind.
Die Aktivität einer geprüften Substanz wird mit der IR₉₀ bestimmt, d.h. es wird jene Wirkstoffdosis ermittelt, bei der noch nach 30 Tagen 9 von 10 Zeckenweibchen (= 90 %) Eier ablegen, die nicht schlupffähig sind.

Experiment [3] relates to Haemonchus concortus und Trichostrongylus colubriformis. In words: B-5 test on sheep infected with nematodes (worm egg count in faeces). It counts as in vivo, Schafe. As to conditions: 0,2 mg/kg, single dose by stomach tube or intraruminal injection; compared with untreated infected sheep. How it is done: Der Wirkstoff wird als Suspension formuliert mit einer Magensonde oder durch Injektion in den Pansen eines Schafes gegeben, das mit Haemonchus concortus und Trychostrongylus colubriformis künstlich infiziert worden ist. Pro Dosis werden 1 bis 3 Tiere verwendet. Jedes Schaf wird nur einmal mit einer einzigen Dosis behandelt, und zwar wahlweise mit 0,5 mg oder 0,2 mg/kg Körpergewicht. Die Evaluierung erfolgt durch Vergleich der Anzahl der vor und nach Behandlung im Kot der Schafe ausgeschiedenen Wurmeier.
Gleichzeitig und gleichartig infizierte aber unbehandelte Schafe dienen als Kontrolle.

For another experiment, the system named is Aphis craccivora. Put plainly: B-6 contact action on Aphis craccivora (sprayed pea seedlings). It counts as in vivo. Particulars: Aphis craccivora, 72 h; 12,5 ppm; after 3 days; read-out: Abtötung. An excerpt: Erbsenkeimlinge, die mit sämtlichen Entwicklungsstadien der Laus infiziert sind, werden mit einer aus einem Emulsionskonzentrat hergestellten Wirkstofflösung besprüht, die wahlweise 50 ppm, 25 ppm oder 12,5 ppm Wirkstoff enthält. Nach 3 Tagen wird auf mehr als 80 % tote bzw. abgefallene Blattläuse ausgewertet. Nur bei dieser Wirkungshöhe wird ein Präparat als wirksam eingestuft.

In the next experiment the test system is Aedes aegypti. In words: B-7 larvicidal action against Aedes aegypti. In kind it is in vivo. As to conditions: 1,6 ppm; nach einem Tag. How it is done:
Auf die Oberfläche von 150 ml Wasser, das sich in einem Behälter befindet, wird soviel einer 0,1 %igen acetonischen Lösung des Wirkstoffes pipettiert, dass Konzentrationen von wahlweise 10 ppm, 3,3 ppm und 1,6 ppm erhalten werden. Nach Verdunsten des Acetons wird der Behälter mit ca. 30-40 3 Tage alten Aedes-Larven beschickt. Nach 1, 2 und 5 Tagen wird die Mortalität geprüft.

The test system of another experiment is Meloidogyne incognita. In words: B-8 soil-nematicidal action against Meloidogyne incognita (tomato plants, root-knot index). It counts as in vivo. Particulars: 0,002 % Aktivsubstanz based on soil volume; after 4 weeks; untreated infected controls = 100 %. As to the method:
Eier von Meloidogyne incognita werden in Sand eingemischt. Dieses Gemisch wird dann in 200 ml fassende Tontöpfe eingebracht (5000 Eier pro Topf). Am gleichen Tag wird pro Topf eine 3 Wochen alte Tomatenpflanze gepflanzt und der formulierte Wirkstoff mittels Druckapplikation in die Töpfe hineingegeben (0,002 % Aktivsubstanz bezogen auf das Bodenvolumen). Die eingetopften Pflanzen werden nun bei einer Temperatur von 26±1°C und einer relativen Luftfeuchtigkeit von 60 % in einem Gewächshaus aufgestellt. Nach Ablauf von 4 Wochen erfolgt eine Evaluierung durch Untersuchung der Pflanzen auf Wurzelgallbildung nach dem sogenannten Wurzelgall-Index ("Knot Index")

The next experiment relates to Dermanyssus gallinae. Put plainly: B-9 miticidal action against Dermanyssus gallinae. In kind it is in vivo. As to conditions: Dermanyssus gallinae, 72 h; 100 ppm; observed for three days; read-out: Wirkung (Mortalität). As to the method: 2 bis 3 ml einer Testlösung (100, 10, 1 und 0,1 ppm Aktivsubstanz) werden in einen nach oben offenen Glasbehälter gegeben und ca. 200 Milben in unterschiedlichen Entwicklungsstadien in diesen Behälter eingesetzt. Der Glasbehälter wird mit einem Wattebausch verschlossen und 10 Minuten gleichmässig, bis zur vollständigen Benetzung der Milben geschüttelt. Danach wird der Behälter umgekehrt hingestellt, bis die überschüssige Testlösung von der Watte aufgesogen ist. Der Behälter wird erneut gekehrt und die behandelten […] zur Evaluierung der Wirksamkeit der Testsubstanzen drei Tage unter Laborbedingungen beobachtet, wobei die Mortalität als Massstab für Wirksamkeit herangezogen wird.

Consider `CC[C@H]1O[C@]2(CC[C@@H]1C)C[C@@H]1C[C@@H](C/C=C(\C)[C@H](C)[C@@H](C)/C=C/C=C3\CO[C@@H]4[C@H](OC(=O)Cn5cncn5)C(C)=C[C@@H](C(=O)O1)[C@]34O)O2` [Verbindung 2.33, 5-O-(1,2,4-Triazol-1-yl)-acetyl-13β-methyl-milbemycin A₄], for which the Abtötung result with Spodoptera littoralis is “vollständige Abtötung”. Moreover, the mortality at 100 ppm (in experiment [1]; in the experiment with Dermanyssus gallinae) was 100% in each case. Moreover, in experiment [2], the “Wirkung (IR₉₀)” value was “sehr gute Wirkung”. For the same molecule, in experiment [3], the “Nematodenbefall (Reduktion der Wurmeier im Kot)” value is recorded as “keinen Nematodenbefall”. In addition, the mortality at 12.5 ppm in the experiment with Aphis craccivora came to 100%. For the same molecule, the “Abtötung sämtlicher Larven” value in the experiment with Aedes aegypti is reported as “vollständige Abtötung”. For the same molecule, in the experiment with Meloidogyne incognita, the “Restbefall (Wurzelgallbildung)” value was 0-10%.
